Experimental findings from ChEMBL document CHEMBL3046738, “Quinolactacide, a new quinolone insecticide from Penicillium citrinum Thom F 1539” (Biosci Biotechnol Biochem, 2005) are described below.

A short description of data set [1]: Solubility of the compound in ethyl acetate. The format is physicochemical.
Data set [2] is described as follows: Solubility of the compound in chloroform. It counts as physicochemical.
The subject of the next data set is Myzus persicae. Put plainly: Insecticidal activity against Myzus persicae (green peach aphid) infested two-leaf stage of cabbage plants assessed as mortality at 250 ppm applied as spray after 4 days relative to untreated control. It counts as functional. To be noted: 96 h.
Data set [3] is described as follows: Solubility of the compound in DMSO. It counts as physicochemical.
Data set [4] can be described thus: Solubility of the compound in methanol. The format is physicochemical.

For `O=C1c2c([nH]c3ccccc3c2=O)-c2cccn21` [QUINOLACTACIDE], the solubility result is given as “Insoluble” in data set [1], “Insoluble” in data set [2], “soluble” in data set [3] and “Insoluble” in data set [4]. In the data set on Myzus persicae, the mortality (as a rule, the share of the test organisms that died) at 250 ppm worked out at 88%.
